Laboratory results as given in article PMC8429728, “TNK1 is a ubiquitin-binding and 14-3-3-regulated kinase that can be targeted to block tumor growth” (Nature Communications, 2021).
Where two headings read alike, the source gives them in different places.

Columns and labels:
Assay in all cases: biochemical
Parameters in all cases: Reaction Biology 371-kinase panel at Km ATP, per cent enzyme activity relative to DMSO, single dose in duplicate
Settings in all cases: duplicate measurements, Km ATP
CAMK4 = CAMK4 (Homo sapiens, UniProt Q16566)
Experimental: (§1) To assess kinase selectivity, we screened TP-5801 (300 nM) against a panel of 371 kinases in vitro. […] In addition to TNK1, only 7 other kinases were inhibited by more than 90% (Supplementary Fig. 8 and Supplementary Data 2). […] The resulting % Enzyme activity (relative to DMSO controls) were plotted in GraphPad and IC50 values were determined by sigmoidal dose-response (variable slope) curve fits, with a bottom constraint of 0.

CDK1/cyclin A = CDK1/cyclin A (Homo sapiens, UniProt P06493)
Chain of CDK1/cyclin A (P06493 whole entry): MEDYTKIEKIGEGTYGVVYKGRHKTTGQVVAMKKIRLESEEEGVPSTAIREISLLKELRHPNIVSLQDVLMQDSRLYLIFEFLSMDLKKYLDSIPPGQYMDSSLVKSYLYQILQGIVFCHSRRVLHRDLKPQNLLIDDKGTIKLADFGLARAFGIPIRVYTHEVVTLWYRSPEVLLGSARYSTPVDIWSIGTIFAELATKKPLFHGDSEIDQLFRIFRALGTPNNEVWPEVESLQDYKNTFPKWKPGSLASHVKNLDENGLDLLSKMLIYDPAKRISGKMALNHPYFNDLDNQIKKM
Chain of CDK1/cyclin A (P20248 whole entry partner): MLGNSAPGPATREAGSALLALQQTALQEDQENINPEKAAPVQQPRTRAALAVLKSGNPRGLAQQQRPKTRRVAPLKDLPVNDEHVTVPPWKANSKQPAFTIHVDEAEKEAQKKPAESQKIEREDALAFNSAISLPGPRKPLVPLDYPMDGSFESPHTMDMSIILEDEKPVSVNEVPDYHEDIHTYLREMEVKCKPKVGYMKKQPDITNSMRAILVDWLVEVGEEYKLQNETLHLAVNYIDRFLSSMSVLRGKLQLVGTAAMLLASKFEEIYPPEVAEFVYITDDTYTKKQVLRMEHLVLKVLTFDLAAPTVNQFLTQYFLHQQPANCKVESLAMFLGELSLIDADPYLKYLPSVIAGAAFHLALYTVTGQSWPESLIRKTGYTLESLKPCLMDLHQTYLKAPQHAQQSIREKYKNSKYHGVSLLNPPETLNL
Experimental: as §1

CDK9/cyclin T1 = CDK9/cyclin T1 (Homo sapiens, UniProt P50750)
Chain of CDK9/cyclin T1 (P50750 whole entry): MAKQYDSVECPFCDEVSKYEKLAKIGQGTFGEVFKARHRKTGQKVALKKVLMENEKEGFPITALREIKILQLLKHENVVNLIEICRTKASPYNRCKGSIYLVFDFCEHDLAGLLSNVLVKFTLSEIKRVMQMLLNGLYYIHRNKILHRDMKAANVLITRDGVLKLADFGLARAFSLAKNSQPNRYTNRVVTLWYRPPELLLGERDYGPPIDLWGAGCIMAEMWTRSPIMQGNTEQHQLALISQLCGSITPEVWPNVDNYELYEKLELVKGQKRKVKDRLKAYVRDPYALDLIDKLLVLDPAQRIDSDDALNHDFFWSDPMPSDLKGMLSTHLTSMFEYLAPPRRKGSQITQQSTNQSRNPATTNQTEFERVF
Chain of CDK9/cyclin T1 (O60563 whole entry partner): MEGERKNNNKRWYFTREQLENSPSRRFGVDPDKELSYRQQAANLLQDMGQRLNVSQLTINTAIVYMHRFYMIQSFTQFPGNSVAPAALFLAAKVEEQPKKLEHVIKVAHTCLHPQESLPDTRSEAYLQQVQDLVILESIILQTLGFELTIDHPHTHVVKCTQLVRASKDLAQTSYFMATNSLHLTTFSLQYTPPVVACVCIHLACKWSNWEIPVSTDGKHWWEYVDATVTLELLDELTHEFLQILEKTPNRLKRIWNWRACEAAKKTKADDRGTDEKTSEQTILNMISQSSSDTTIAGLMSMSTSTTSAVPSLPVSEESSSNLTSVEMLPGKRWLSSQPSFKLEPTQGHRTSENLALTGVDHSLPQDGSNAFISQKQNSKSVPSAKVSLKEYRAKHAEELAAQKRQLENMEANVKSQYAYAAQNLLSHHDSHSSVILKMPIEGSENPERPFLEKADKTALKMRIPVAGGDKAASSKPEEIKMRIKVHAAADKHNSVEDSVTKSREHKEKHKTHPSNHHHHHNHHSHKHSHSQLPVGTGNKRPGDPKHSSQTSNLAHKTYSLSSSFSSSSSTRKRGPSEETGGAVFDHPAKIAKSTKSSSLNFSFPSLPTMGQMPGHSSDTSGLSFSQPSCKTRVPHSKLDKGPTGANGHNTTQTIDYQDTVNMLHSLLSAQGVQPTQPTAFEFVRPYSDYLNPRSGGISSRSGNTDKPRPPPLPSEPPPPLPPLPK
Experimental: as §1

CK1g2 = molecular target: T1, CK1g2 (Homo sapiens, UniProt P78368)
T1 construct: gene CSNK1G2
Experimental: as §1

FGFR2 = FGFR2 (Homo sapiens, UniProt P21802)
Experimental: as §1

GSK3a = GSK3a (Homo sapiens, UniProt P49840)
Chain of GSK3a (P49840 whole entry): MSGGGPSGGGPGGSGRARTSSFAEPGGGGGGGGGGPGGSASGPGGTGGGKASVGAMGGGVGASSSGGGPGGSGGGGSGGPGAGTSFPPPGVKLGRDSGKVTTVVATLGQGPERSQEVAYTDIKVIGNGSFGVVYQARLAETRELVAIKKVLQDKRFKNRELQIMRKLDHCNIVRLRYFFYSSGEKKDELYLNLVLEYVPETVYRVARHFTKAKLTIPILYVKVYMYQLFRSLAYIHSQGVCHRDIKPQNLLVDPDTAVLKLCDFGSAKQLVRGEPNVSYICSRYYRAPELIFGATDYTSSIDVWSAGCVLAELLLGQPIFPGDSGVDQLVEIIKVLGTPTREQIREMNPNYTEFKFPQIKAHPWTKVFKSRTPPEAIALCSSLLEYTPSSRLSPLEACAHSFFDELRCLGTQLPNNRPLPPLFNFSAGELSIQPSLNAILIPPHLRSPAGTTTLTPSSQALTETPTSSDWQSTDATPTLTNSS
Experimental: as §1

HGK/MAP4K4 = HGK/MAP4K4 (Homo sapiens, UniProt O95819)
Chain of HGK/MAP4K4 (O95819 whole entry): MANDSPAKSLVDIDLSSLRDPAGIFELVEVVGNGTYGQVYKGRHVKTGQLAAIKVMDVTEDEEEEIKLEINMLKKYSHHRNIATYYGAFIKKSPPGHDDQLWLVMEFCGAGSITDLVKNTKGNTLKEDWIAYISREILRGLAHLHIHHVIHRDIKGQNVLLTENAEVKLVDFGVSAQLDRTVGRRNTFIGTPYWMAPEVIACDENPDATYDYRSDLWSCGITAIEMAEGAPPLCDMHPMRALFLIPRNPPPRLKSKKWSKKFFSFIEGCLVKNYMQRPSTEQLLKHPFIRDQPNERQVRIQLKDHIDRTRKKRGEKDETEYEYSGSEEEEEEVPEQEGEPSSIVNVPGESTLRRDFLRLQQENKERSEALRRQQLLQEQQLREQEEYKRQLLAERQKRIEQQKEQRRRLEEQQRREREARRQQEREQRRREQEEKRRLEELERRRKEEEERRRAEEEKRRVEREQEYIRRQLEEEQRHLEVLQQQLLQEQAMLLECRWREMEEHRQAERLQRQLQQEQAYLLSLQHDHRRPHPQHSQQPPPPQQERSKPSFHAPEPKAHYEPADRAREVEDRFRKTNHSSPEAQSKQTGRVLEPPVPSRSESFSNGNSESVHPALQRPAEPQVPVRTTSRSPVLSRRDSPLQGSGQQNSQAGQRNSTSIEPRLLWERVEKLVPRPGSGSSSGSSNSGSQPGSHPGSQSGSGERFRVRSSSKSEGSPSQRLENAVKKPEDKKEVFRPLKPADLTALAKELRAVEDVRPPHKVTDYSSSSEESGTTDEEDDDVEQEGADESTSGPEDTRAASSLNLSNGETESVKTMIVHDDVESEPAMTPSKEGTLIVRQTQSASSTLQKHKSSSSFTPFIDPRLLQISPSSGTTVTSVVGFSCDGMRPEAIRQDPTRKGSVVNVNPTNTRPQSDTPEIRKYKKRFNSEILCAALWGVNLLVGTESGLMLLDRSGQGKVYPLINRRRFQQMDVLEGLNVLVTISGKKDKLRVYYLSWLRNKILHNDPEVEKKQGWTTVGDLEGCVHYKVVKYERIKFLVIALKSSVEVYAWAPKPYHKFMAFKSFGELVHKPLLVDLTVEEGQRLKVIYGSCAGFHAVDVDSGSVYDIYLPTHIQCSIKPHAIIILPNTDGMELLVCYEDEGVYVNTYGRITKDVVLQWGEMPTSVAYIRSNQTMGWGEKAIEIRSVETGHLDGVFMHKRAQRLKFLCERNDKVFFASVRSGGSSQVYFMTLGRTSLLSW
Experimental: as §1

IKKa/CHUK = IKKa/CHUK (Homo sapiens, UniProt O15111)
Experimental: as §1

JAK2 = JAK2 (Homo sapiens, UniProt O60674)
Experimental: as §1

PAK5 = PAK5 (Homo sapiens, UniProt Q9P286)
Experimental: as §1

PBK/TOPK = PBK/TOPK (Homo sapiens, UniProt Q96KB5)
Experimental: as §1

PKCa = molecular target: T2, PKCa (Homo sapiens, UniProt P17252)
T2 construct: gene PRKCA
Experimental: as §1

PKCb1 = molecular target: T3, PKCb1 (Homo sapiens, UniProt P05771)
T3 construct: gene PRKCB; isoform beta I
Experimental: as §1

PKCd = molecular target: T4, PKCd (Homo sapiens, UniProt Q05655)
T4 construct: gene PRKCD
T4 sequence (Q05655 whole entry): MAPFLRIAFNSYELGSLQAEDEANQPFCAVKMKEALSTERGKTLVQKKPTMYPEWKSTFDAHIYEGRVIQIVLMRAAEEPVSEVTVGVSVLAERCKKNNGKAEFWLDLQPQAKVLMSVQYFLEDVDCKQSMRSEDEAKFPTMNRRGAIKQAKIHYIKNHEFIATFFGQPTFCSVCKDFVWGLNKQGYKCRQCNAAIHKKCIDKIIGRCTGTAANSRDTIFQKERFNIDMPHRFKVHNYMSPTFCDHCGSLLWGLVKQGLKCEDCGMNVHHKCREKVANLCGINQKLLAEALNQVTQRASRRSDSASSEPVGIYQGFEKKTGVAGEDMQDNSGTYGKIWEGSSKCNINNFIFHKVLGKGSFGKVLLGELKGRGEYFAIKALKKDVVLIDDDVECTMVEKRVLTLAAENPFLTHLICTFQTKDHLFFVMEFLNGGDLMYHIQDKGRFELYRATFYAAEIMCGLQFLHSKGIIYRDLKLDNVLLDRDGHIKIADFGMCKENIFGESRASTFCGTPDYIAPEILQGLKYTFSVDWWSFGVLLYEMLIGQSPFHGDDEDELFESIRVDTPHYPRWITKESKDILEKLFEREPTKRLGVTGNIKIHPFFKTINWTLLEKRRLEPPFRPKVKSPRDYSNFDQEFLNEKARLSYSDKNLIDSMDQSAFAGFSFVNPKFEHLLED
Experimental: as §1

PLK3 = PLK3 (Homo sapiens, UniProt Q9H4B4)
Experimental: as §1

SIK3 = SIK3 (Homo sapiens, UniProt Q9Y2K2)
Experimental: as §1

SRPK1 = SRPK1 (Homo sapiens, UniProt Q96SB4)
Experimental: as §1

SRPK2 = SRPK2 (Homo sapiens, UniProt P78362)
Experimental: as §1

TEC = TEC (Homo sapiens, UniProt P42680)
Chain of TEC (P42680 whole entry): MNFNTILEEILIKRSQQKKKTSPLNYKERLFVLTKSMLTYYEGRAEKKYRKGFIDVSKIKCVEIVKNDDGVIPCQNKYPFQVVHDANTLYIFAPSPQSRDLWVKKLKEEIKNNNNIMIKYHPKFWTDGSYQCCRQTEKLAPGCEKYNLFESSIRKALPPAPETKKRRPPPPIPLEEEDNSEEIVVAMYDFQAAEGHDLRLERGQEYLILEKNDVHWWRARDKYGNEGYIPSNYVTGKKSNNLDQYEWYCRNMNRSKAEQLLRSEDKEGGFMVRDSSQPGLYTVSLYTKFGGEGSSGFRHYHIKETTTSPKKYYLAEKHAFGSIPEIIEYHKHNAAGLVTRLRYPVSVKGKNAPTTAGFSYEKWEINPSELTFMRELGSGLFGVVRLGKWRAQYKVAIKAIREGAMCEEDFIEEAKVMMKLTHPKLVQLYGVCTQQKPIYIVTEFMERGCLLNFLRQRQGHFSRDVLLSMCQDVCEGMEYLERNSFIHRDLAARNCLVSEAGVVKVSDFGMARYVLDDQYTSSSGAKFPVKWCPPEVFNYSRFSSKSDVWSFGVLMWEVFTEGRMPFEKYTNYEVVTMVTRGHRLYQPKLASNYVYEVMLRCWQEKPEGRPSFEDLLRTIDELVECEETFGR
Experimental: as §1

WNK2 = WNK2 (Homo sapiens, UniProt Q9Y3S1)
Experimental: as §1

[1] = read-out: % Enzyme Activity (relative to DMSO controls) / TP-0005801 (0.3µM) / Data 1
[2] = read-out: % Enzyme Activity (relative to DMSO controls) / TP-0005801 (0.3µM) / Data 2

- remaining activity at 0.3 µM (CAMK4; [1]): 96.9%
- remaining activity at 0.3 µM (CAMK4; [2]): 94.7%
- remaining activity at 0.3 µM (CDK1/cyclin A; [1]): 102%
- remaining activity at 0.3 µM (CDK1/cyclin A; [2]): 101%
- remaining activity at 0.3 µM (CDK9/cyclin T1; [1]): 128%
- remaining activity at 0.3 µM (CDK9/cyclin T1; [2]): 115%
- remaining activity at 0.3 µM (CK1g2; [1]): 94.5%
- remaining activity at 0.3 µM (CK1g2; [2]): 92.9%
- remaining activity at 0.3 µM (FGFR2; [1]): 89.2%
- remaining activity at 0.3 µM (FGFR2; [2]): 87.3%
- remaining activity at 0.3 µM (GSK3a; [1]): 97.1%
- remaining activity at 0.3 µM (GSK3a; [2]): 95.8%
- remaining activity at 0.3 µM (HGK/MAP4K4; [1]): 103%
- remaining activity at 0.3 µM (HGK/MAP4K4; [2]): 102%
- remaining activity at 0.3 µM (IKKa/CHUK; [1]): 99.5%
- remaining activity at 0.3 µM (IKKa/CHUK; [2]): 94.3%
- remaining activity at 0.3 µM (JAK2; [1]): 82.8%
- remaining activity at 0.3 µM (JAK2; [2]): 77.7%
- remaining activity at 0.3 µM (PAK5; [1]): 86.5%
- remaining activity at 0.3 µM (PAK5; [2]): 85.3%
- remaining activity at 0.3 µM (PBK/TOPK; [1]): 107%
- remaining activity at 0.3 µM (PBK/TOPK; [2]): 98.9%
- remaining activity at 0.3 µM (PKCa; [1]): 98.6%
- remaining activity at 0.3 µM (PKCa; [2]): 98%
- remaining activity at 0.3 µM (PKCb1; [1]): 90.9%
- remaining activity at 0.3 µM (PKCb1; [2]): 90.2%
- remaining activity at 0.3 µM (PKCd; [1]): 113%
- remaining activity at 0.3 µM (PKCd; [2]): 99.7%
- remaining activity at 0.3 µM (PLK3; [1]): 109%
- remaining activity at 0.3 µM (PLK3; [2]): 102%
- remaining activity at 0.3 µM (SIK3; [1]): 96.1%
- remaining activity at 0.3 µM (SIK3; [2]): 93.9%
- remaining activity at 0.3 µM (SRPK1; [1]): 96.5%
- remaining activity at 0.3 µM (SRPK1; [2]): 93.9%
- remaining activity at 0.3 µM (SRPK2; [1]): 114%
- remaining activity at 0.3 µM (SRPK2; [2]): 110%
- remaining activity at 0.3 µM (TEC; [1]): 93.4%
- remaining activity at 0.3 µM (TEC; [2]): 92.2%
- remaining activity at 0.3 µM (WNK2; [1]): 96.6%
- remaining activity at 0.3 µM (WNK2; [2]): 93.9%
SMILES: COc1cc(N2CCN(C)CC2)c(C)cc1Nc1ncc(Br)c(Nc2cccnc2N(C)C)n1 [TP-5801]
